The target in this experiment is isomerase (Mus musculus (Mouse), UniProt Q91ZQ5). The experiment in a line: In vivo murine isomerase assay (recovery of 11-cis-retinal after photobleaching). To be noted: for inhibition at 10 mg/kg / inhibition at 1 mg/kg / ED50 / inhibition at 5 mg/kg: mouse; for inhibition at 10 mg/kg / inhibition at 1 mg/kg / inhibition at 5 mg/kg: po, negative numbers leveled to 0%; for inhibition at 10 mg/kg: 10 mg/kg oral gavage; for inhibition at 1 mg/kg: 1 mg/Kg oral gavage; for ED50: estimated, oral gavage, read-out: ED50 (dose of compound that gives 50% inhibition of 11-cis retinal (oxime) recovery); for inhibition at 5 mg/kg: 5 mg/kg oral gavage. The arrangement: species or system CD-1 (albino) male mice. On the procedure:
The capability of styrenyl derivatives to inhibit isomerase is determined by an in vivo murine isomerase assay. Brief exposure of the eye to intense light (“photobleaching” of the visual pigment or simply “bleaching”) is known to photo-isomerize almost all 11-cis-retinal in the retina. The recovery of 11-cis-retinal after bleaching can be used to estimate the activity of isomerase in vivo. Procedures were performed essentially as described by Golczak et al., Proc. Natl. Acad. Sci. USA 102:8162-67 (2005). See also Deigner et al., Science, 244: 968-71 (1989); Gollapalli et al., Biochim Biophys Acta. 1651: 93-101 (2003); Parish, et al., Proc. Natl. Acad. Sci. USA, 14609-13 (1998); Radu, et al., Proc Natl Acad Sci USA 101: 5928-33 (2004). […] Mice were gavaged with styrenyl derivative compounds, Compound 1 or Compound 25. Compound B was included as a positive control, and Compound A with low activity was also included. After 1-72 hours in the dark, the mice were exposed to photobleaching of 3,000 lux of white light for 10 minutes. The mice were allowed to recover 2 hours in the dark. The animals were then sacrificed by carbon dioxide inhalation. Retinoids were extracted from the eye and the regeneration of 11-cis-retinal was assessed at various time intervals. All steps were performed in darkness with minimal redlight illumination (low light darkroom lights and […] flashlights for spot illumination as needed) (see, e.g., Maeda et al., J. Neurochem 85:944-956, 2003; Van Hooser et al., J Biol Chem 277:19173-82, 2002). After the mice were sacrificed, the eyes were immediately removed and placed in liquid nitrogen. The eyes were then homogenized in a glass/glass homogenizer (Kontes Glass Co., homogenizer & pestle 21) containing 1 ml retinoid analysis buffer (50 mM MOPS, 10 mM NH2OH, 50% EtOH, pH 7.0 (stock buffer was stored in absence of ethanol)). The eyes were homogenized until no visible tissue remained (approximately 3 minutes). The samples were incubated 20 minutes at room temperature (including homogenizing) and then placed on ice. One ml cold EtOH was added to the homogenate to rinse the pestle, and the homogenate mixture was transferred to 7 ml glass screwtop tubes on ice. The homogenizer was rinsed with 7 ml hexane, which was added to the 7 ml tubes on ice. The homogenate was mixed by vortexing at high speed for 1 minute. The phases were separated by centrifugation (5 minutes at 4000 rpm, 4° C.). The upper phase was collected and transferred to a clean glass test tube, taking care to avoid disturbing the interface by leaving approximately 0.2 ml of upper phase in the tube. The tubes with the collected upper phase were placed in a heating block at 25° C. and dried under a stream of Argon ( 30 minutes). The lower phase was again extracted by adding 4 ml hexane, vortexing, and separating the phases by centrifugation. The upper phase was collected as described above and pooled into the drying tubes. The dried samples were solubilized in 300 μl Hexane (Fisher Optima grade) and vortexed lightly. The samples were transferred to clean 300 μl glass inserts in HPLC vials using glass pipette and the vials were crimped shut tightly. […] Part #235341). […] The area under the curve for 11-cis retinal oxime was calculated by Agilent Chemstation software and was recorded manually. Data processing was performed using Prizm software. Positive control mice (no compound administered) were sacrificed fully dark-adapted and the eye retinoids analyzed. Light (bleached) control mice (no compound administered) were sacrificed and retinoids isolated and analyzed immediately after light treatment.

Chain of isomerase (Q91ZQ5 whole entry): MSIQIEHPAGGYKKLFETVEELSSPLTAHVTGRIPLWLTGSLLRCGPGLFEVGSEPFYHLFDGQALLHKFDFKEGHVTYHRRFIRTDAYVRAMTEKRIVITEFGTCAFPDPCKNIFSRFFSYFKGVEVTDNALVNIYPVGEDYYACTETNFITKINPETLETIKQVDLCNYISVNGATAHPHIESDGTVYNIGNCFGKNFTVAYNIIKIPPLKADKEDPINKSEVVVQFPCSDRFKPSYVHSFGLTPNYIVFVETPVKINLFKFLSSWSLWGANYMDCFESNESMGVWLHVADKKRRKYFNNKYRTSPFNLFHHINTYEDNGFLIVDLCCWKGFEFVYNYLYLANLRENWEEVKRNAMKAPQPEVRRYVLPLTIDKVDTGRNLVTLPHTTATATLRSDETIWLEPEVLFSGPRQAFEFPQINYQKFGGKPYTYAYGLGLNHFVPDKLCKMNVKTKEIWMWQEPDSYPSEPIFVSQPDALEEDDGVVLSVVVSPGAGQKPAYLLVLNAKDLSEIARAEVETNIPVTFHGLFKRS

`CCc1cccc(C)c1C=Cc1cccc(CCCN)c1` (mixture of isomers) [Example 32, (E/Z)-3-(3-(2-ethyl-6-methylstyryl)phenyl)propan-1-amine]: 10 mg/kg produced 52% inhibition (4 h).

As for `Cc1cc(C)cc(C=Cc2cccc(CCCN)c2)c1` (mixture of isomers) [Example 40, (E/Z)-4-(3-(3,5-dimethylstyryl)phenyl)propan-1-amine], the inhibition – broadly, the share of the control response that was lost under treatment – at 10 mg/kg (4 h) worked out at 2%.

With `COc1ccccc1C=Cc1cccc(CCCN)c1` (mixture of isomers) [Example 41], 10 mg/kg produced 76% inhibition (4 h).

On to `CC1=C(/C=C/c2cccc(C(O)CCN)c2)C(C)(C)CCC1` (centres unmarked) [Compound 25, (E)-3-amino-1-(3-(2-(2,6,6-trimethylcyclohex-1-enyl)vinyl)phenyl)propan-1-ol], for which the inhibition at 1 mg/kg reads like this: (4 h) 89%; (24 h) 96%. The molecule also returned an inhibition at 10 mg/kg (4 h) of 100%. In addition, the ED50 – broadly, the dose at which the effect has come halfway, by size or by number of responders – (mice) is 0.44 mg/kg.

Consider `Cc1cccc(C)c1/C=C/c1cccc(CCCN)c1` [Example 1, (E)-3-(3-(2,6-dimethylstyryl)phenyl)propan-1-amine], for which, where the note is “isomerase inhibitory activity over time, mice, FIG. 1”, the “time of maximum inhibitory effect after gavage” value is around 6 h. The inhibition at 1 mg/kg by setting is: (2 h) 0%; (6 h) 0%; (24 h) 0%. The inhibition at 5 mg/kg by setting is: (4 h) 57%; (24 h) 58%. This molecule gave an inhibition at 10 mg/kg (4 h) of 80%. In addition, under “mice”, the ED50 is 4.3 mg/kg.

Molecule `CNCCCc1cccc(/C=C/c2c(C)cccc2C)c1` [Example 7, (E)-3-(3-(2,6-dimethylstyryl)phenyl)-N-methylpropan-1-amine] had an inhibition at 10 mg/kg (4 h) of 36% and an inhibition at 10 mg/kg (24 h) of 8%.

Where the note is “4 h”, `CC1=C(/C=C/c2cccc(CCCN)c2)C(C)(C)CCC1` [Example 21, (E)-3-(3-(2-(2,6,6-trimethylcyclohex-1-enyl)vinyl)phenyl)propan-1-amine] gave an inhibition at 10 mg/kg of 80%.

As for `NCCCc1cccc(/C=C/C2CCCCC2)c1` [Example 22, (E)-3-(3-(2-cyclohexylvinyl)phenyl)propan-1-amine], testing at 10 mg/kg (4 h) gave an inhibition of 0%.

With `CCC/C=C/c1cccc(CCCN)c1` [Example 23, (E)-3-(3-(pent-1-enyl)phenyl)propan-1-amine], under “4 h”, 10 mg/kg produced 0% inhibition.

Regarding `CCCCC/C=C/c1cccc(CCCN)c1` [Example 24, (E)-3-(3-(hept-1-enyl)phenyl)propan-1-amine], where the note is “4 h”, the inhibition at 10 mg/kg is 16%.

`CC1=C(/C=C/c2cccc(CC(C)CN)c2)C(C)(C)CCC1` (centres unmarked) [Example 26, (E)-2-methyl-3-(3-(2-(2,6,6-trimethylcyclohex-1-enyl)vinyl)phenyl)propan-1-amine] had an inhibition at 10 mg/kg (4 h) of 80%.

For `CC1=C(/C=C/c2cccc(C(C)CCN)c2)C(C)(C)CCC1` (centres unmarked) [Example 27, (E)-3-(3-(2-(2,6,6-trimethylcyclohex-1-enyl)vinyl)phenyl)butan-1-amine], where the note is “4 h”, testing at 10 mg/kg gave an inhibition of 11%.

For the molecule `CC1=C(/C=C/c2cccc(OCCN)c2)C(C)(C)CCC1` [Example 31, (E)-2-(3-(2-(2,6,6-trimethylcyclohex-1-enyl)vinyl)phenoxy)ethanamine], the inhibition at 1 mg/kg (2 h) turned out to be 0%, the inhibition at 1 mg/kg (6 h) turned out to be 2% and testing at 1 mg/kg (24 h) gave an inhibition of 0%. The inhibition at 5 mg/kg came out at 53% (4 h) and 46% (24 h).

In turn, `NCCCc1cccc(/C=C/c2c(Cl)cccc2Cl)c1` [Example 43, (E)-3-(3-(2,6-dichlorostyryl)phenyl)propan-1-amine] returned an inhibition at 1 mg/kg (2 h) of 0%, an inhibition at 1 mg/kg (6 h) of 7% and an inhibition at 1 mg/kg (24 h) of 16%. This molecule also showed an inhibition at 5 mg/kg (4 h) of 79% and an inhibition at 5 mg/kg (24 h) of 54%. Where the note is “4 h”, this molecule returned an inhibition at 10 mg/kg of 94%.

Take `NCCCc1cccc(/C=C/c2c(C(F)(F)F)cccc2C(F)(F)F)c1` [Example 49, (E)-3-(3-(2,6-bis(trifluoromethyl)styryl)phenyl)propan-1-amine]: where the note is “4 h”, testing at 1 mg/kg gave an inhibition of 10% and the inhibition at 5 mg/kg was 60%. Besides, where the note is “24 h”, the inhibition at 1 mg/kg stood at 0% and the inhibition at 5 mg/kg was determined as 84%.

Regarding `CC1=C(/C=C/c2cccc(C(F)CCN)c2)C(C)(C)CCC1` (centres unmarked) [Example 55, (E)-3-fluoro-3-(3-(2-(2,6,6-trimethylcyclohex-1-enyl)vinyl)phenyl)propan-1-amine], for the setting “2 h”, 1 mg/kg produced 0% inhibition. The inhibition at 5 mg/kg is, setting by setting: (4 h) 75%; (24 h) 89%.

Consider `CC1=C(/C=C/c2cccc(C(=O)CCN)c2)C(C)(C)CCC1` [Example 56, (E)-3-amino-1-(3-(2-(2,6,6-trimethylcyclohex-1-enyl)vinyl)phenyl)propan-1-one], for which the inhibition at 1 mg/kg by setting is: (2 h) 26%; (6 h) 75%; (24 h) 77%.

`CC1=C(/C=C/c2cccc(C(O)C(C)CN)c2)C(C)(C)CCC1` (stereo not drawn) [Example 59, (E)-(syn/anti)-3-amino-2-methyl-1-(3-(2-(2,6,6-trimethylcyclohex-1-enyl)vinyl)phenyl)propan-1-ol] yielded an inhibition at 1 mg/kg (4 h) of 0% and an inhibition at 1 mg/kg (6 h) of 1%. Moreover, the inhibition at 5 mg/kg was 21% (4 h) and 7% (24 h).

Turning to `CC1=C(/C=C/c2cccc(C(N)CCN)c2)C(C)(C)CCC1` (centres unmarked) [Example 61, (E)-1-(3-(2-(2,6,6-trimethylcyclohex-1-enyl)vinyl)phenyl)propane-1,3-diamine], the inhibition at 1 mg/kg runs as follows: (4 h) 0%; (6 h) 0%. Also, the inhibition at 5 mg/kg was 12% (4 h) and 0% (24 h).

In the case of `CC1=C(/C=C/c2cccc(C#CCN)c2)C(C)(C)CCC1` [Example 68, (E)-3-(3-(2-(2,6,6-trimethylcyclohex-1-enyl)vinyl)phenyl)prop-2-yn-1-amine], the inhibition at 10 mg/kg (4 h) stood at 75%.

Regarding `NC[C@H](O)Cc1cccc(/C=C/c2c(Cl)cccc2Cl)c1` [Example 74, (R,E)-1-amino-3-(3-(2,6-dichlorostyryl)phenyl)propan-2-ol], the inhibition at 1 mg/kg was found to be 19% (2 h), 40% (6 h) and 9% (24 h). The inhibition at 5 mg/kg was 83% (2 h), 91% (6 h) and 56% (24 h).

Consider `NC[C@@H](O)Cc1cccc(/C=C/c2c(Cl)cccc2Cl)c1` [Example 75, (S,E)-1-amino-3-(3-(2,6-dichlorostyryl)phenyl)propan-2-ol], for which the inhibition at 1 mg/kg worked out at 19% (2 h), 20% (6 h) and 13% (24 h). For the same molecule, the inhibition at 5 mg/kg is 81% (2 h), 90% (6 h) and 85% (24 h).

In the case of `CC(C)(O)/C=C/c1cccc(CCCN)c1` [Example 79, (E)-4-(3-(3-aminopropyl)phenyl)-2-methylbut-3-en-2-ol], the inhibition at 5 mg/kg runs as follows: (4 h) 24%; (24 h) 0%.

`CCCC(O)(/C=C/c1cccc(CCCN)c1)CCC` [Example 83, (E)-4-(3-(3-aminopropyl)styryl)heptan-4-ol]: for the setting “4 h”, the inhibition at 1 mg/kg stood at 55% and 5 mg/kg produced 97% inhibition. In addition, where the note is “24 h”, the inhibition at 1 mg/kg is 0% and the inhibition at 5 mg/kg amounted to 3%.
